What follows are molecules tested against USP19 (Homo sapiens (Human), UniProt O94966) (assay: USP19 activity assay (fluorescence polarisation, Ubiquitin-Lys-TAMRA substrate)). Details: full-length USP19 2.5 nM, 30 min pre-incubation, Ub substrate 500 nM; average of at least two duplicate experiments.
Type: biochemical

USP19, sequence (O94966 whole entry): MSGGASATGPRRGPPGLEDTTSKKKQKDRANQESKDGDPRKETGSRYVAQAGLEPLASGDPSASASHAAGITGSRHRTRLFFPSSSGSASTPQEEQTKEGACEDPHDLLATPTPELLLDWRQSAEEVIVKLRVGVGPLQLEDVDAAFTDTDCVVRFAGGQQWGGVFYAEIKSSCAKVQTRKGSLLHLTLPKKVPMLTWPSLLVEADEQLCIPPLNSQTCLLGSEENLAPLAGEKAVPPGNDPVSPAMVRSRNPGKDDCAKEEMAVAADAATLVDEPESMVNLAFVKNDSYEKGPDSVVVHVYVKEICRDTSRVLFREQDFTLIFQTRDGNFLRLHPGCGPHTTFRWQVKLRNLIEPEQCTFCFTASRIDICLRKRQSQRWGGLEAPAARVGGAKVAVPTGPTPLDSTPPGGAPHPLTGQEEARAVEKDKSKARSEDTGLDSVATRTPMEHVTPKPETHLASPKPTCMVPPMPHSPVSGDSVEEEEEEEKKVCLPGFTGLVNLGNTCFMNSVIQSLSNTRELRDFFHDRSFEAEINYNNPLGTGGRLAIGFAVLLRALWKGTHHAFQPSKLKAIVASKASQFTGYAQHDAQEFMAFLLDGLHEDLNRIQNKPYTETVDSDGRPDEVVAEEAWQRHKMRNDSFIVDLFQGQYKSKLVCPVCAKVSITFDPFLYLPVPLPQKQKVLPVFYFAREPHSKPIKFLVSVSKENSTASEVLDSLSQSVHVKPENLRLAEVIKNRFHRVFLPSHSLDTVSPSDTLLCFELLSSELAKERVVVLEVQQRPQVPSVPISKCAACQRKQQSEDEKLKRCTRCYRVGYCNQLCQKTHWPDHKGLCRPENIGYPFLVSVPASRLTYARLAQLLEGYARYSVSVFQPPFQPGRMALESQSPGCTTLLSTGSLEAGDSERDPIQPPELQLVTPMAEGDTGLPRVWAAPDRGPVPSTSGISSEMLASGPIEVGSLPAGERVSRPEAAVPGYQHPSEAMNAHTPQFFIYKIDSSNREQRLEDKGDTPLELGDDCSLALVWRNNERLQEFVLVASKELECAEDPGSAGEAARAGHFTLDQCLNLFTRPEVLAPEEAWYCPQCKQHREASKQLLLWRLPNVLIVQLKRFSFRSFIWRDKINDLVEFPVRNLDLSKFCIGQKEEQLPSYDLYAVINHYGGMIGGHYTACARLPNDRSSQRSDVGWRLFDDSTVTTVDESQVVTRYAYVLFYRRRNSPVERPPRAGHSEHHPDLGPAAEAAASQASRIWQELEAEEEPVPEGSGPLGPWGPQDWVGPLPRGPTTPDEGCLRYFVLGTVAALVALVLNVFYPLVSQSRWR

`CC(=O)Nc1ccccc1-c1cc(=O)n(CC2(O)CCN(C(=O)C[C@@H](C)c3ccccc3)CC2)cn1` [Example 85, (R)—N-(2-(1-((4-Hydroxy-1-(3-phenylbutanoyl)piperidin-4-yl)methyl)-6-oxo-1,6-dihydropyrimidin-4-yl)phenyl)acetamide] and `Cc1c(-c2cc(=O)n(CC3(O)CCN(C(=O)C[C@@H](C)c4ccccc4)CC3)cn2)cnn1C` [Example 112, (R)-6-(1,5-Dimethyl-1H-pyrazol-4-yl)-3-((4-hydroxy-1-(3-phenylbutanoyl)piperidin-4-yl)methyl)pyrimidin-4(3H)-one] fall in the same range of IC50: 50 to 250 µM for the first, 50 to 250 µM for the second.

First: C[C@H](CC(=O)N1CCC(O)(Cn2cc(-c3cccnc3)c(-c3ccccc3)cc2=O)CC1)c1ccccc1 [Example 99, (R)-1-((4-Hydroxy-1-(3-phenylbutanoyl)piperidin-4-yl)methyl)-4-phenyl-[3,3′-bipyridin]-6(1H)-one]
Second: CC(C)N(C)C(=O)c1cn(CC2(O)CCN(C(=O)C[C@@H](C)c3ccccc3)CC2)c(=O)cc1-c1ccccc1F [Example 90, (R)-4-(2-Fluorophenyl)-1-((4-hydroxy-1-(3-phenylbutanoyl)piperidin-4-yl)methyl)-N-isopropyl-N-methyl-6-oxo-1,6-dihydropyridine-3-carboxamide]
The IC50 of the first is higher: 5 to 50 µM for the first, 0.5 to 5 µM for the second. The second is the more potent here.

`O=C(CCC1CCCCC1)N1C[C@H]2CC[C@@H](C1)C2(O)Cn1cnc(-c2ccccc2F)cc1=O` (stereo partly drawn) [Example 113, 3-(((1R,5S)-3-(3-Cyclohexylpropanoyl)-8-hydroxy-3-azabicyclo[3.2.1]octan-8-yl)methyl)-6-(2-fluorophenyl)pyrimidin-4(3H)-one] and `CC1(C(=O)N2CCC(O)(Cn3cnc(-c4ccccc4F)cc3=O)C(C)(C)C2)CCCCC1` (racemic) [Example 81, (R,S)-6-(2-Fluorophenyl)-3-((4-hydroxy-3,3-dimethyl-1-(1-methylcyclohexane-1-carbonyl)piperidin-4-yl)methyl)pyrimidin-4(3H)-one] fall in the same range of IC50: 50 to 250 µM for the first, 50 to 250 µM for the second.

First: C[C@H](CC(=O)N1CCC(O)(Cn2cnc(Oc3ccc(F)cc3)cc2=O)CC1)c1ccccc1 [Example 54]
Second: O=C([C@@H]1C[C@@H]1c1ccccc1)N1CCC(O)(Cn2cnc(-c3ccccc3F)cc2=O)CC1 (racemic) [Example 41, rac-6-(2-Fluorophenyl)-3-((4-hydroxy-1-(cis-2-phenylcyclopropanecarbonyl)piperidin-4-yl)methyl)pyrimidin-4(3H)-one]
The IC50 of the first is higher: 50 to 250 µM for the first, 5 to 50 µM for the second.

First: C[C@H](CC1CCCCC1)C(=O)N1CC[C@@](O)(Cn2cc(C(=O)N3CCNCC3)c(-c3ccccc3F)cc2=O)C(C)(C)C1 [Example 206, 1-(((S)-1-((R)-3-Cyclohexyl-2-methylpropanoyl)-4-hydroxy-3,3-dimethylpiperidin-4-yl)methyl)-4-(2-fluorophenyl)-5-(piperazine-1-carbonyl)pyridin-2(1H)-one]
Second: C[C@H](CC1CCCCC1)C(=O)N1CCC(O)(Cn2cc(C(=O)O)c(-c3ccccc3)cc2=O)C(C)(C)C1 (stereo partly drawn) [Example 241, 1-((1-((R)-3-Cyclohexyl-2-methylpropanoyl)-4-hydroxy-3,3-dimethylpiperidin-4-yl)methyl)-6-oxo-4-phenyl-1,6-dihydropyridine-3-carboxylic acid]
The IC50 of the first is lower: under 0.5 µM for the first, 0.5 to 5 µM for the second. The first is the more potent here.

`CN(C)C(=O)c1cn(CC2(O)CCN(C(=O)c3csc(C(F)(F)F)n3)CC23CCCC3)c(=O)cc1-c1ccccc1` (stereo not drawn) [Example 246, 1-((10-Hydroxy-7-(2-(trifluoromethyl)thiazole-4-carbonyl)-7-azaspiro[4.5]decan-10-yl)methyl)-N,N-dimethyl-6-oxo-4-phenyl-1,6-dihydropyridine-3-carboxamide] and `CN(C)C(=O)c1cn(CC2(O)CCN(C(=O)COC3CCCCC3)CC23CCCC3)c(=O)cc1-c1ccccc1` (stereo not drawn) [Example 194, 1-((7-(2-(Cyclohexyloxy)acetyl)-10-hydroxy-7-azaspiro[4.5]decan-10-yl)methyl)-N,N-dimethyl-6-oxo-4-phenyl-1,6-dihydropyridine-3-carboxamide] fall in the same range of IC50: 5 to 50 µM for the first, 5 to 50 µM for the second.

From patent US11053213B2, “Pharmaceutical compounds” (ALMAC DISCOVERY LIMITED, priority 2016, dated 2021)
